“And” between values parts separate entries of the source, which are not always exact repeats. Identical values can stand only once.
Tested on: 454973-116-R2-J3-PDC spheroids, viability, % test/control
Experiment: Anticancer human tumor 454973-116-R2-J3-PDC patient-derived pancreatic carcinoma cell line growth inhibition [GQUAD]
Settings: spheroids with HUVEC and MSC; for viability, T/C: stronger effect = lower value
From the text: DNA G-quadruplex Stabilizer Agents in Combinations in Complex Spheroids
A high-throughput screen of multi-cell type tumor spheroids was designed to identify active combinations of DNA G-quadruplex stabilizer agents and targeted small molecules. Complex spheroids include a stromal component modeled by human endothelial cells (HUVEC) and fibroblasts modeled by human mesenchymal stem cells (MSCs). The concentration ranges selected for each drug and investigational agent were based upon clinically achievable concentrations if the clinical Cmax of the agent was known.
Compounds. The drugs and investigational agents: pidnarulex (CX-5461; NSC782164), APTO-253 (NSC789042), BRACO-19 (NSC847499), peposertib (NSC802822), ceralasertib (NSC780249), elimusertib (NSC800525), camonsertib (NSC841442), AZD-1390 (NSC803789), olaparib (NSC753686), talazoparib (NSC767125), ART-558 (NSC835418), sotorasib (NSC818433), MRTX-1133 (NSC836407), SN-38 (NSC673596), topotecan (NSC609699), etoposide (NSC141540), doxorubicin (NSC123127), gemcitabine (NSC613327), 5-fluorouracil (NSC19893), paclitaxel (NSC125973), vemurafenib (NSC761431), panobinostat (NSC761190), R-306465 (JNJ-16241199; NSC773264), adavosertib (NSC754352), TP-3654 (NSC805149), carboplatin (NSC241240), KSQ-4279 (NSC840948), and staurosporine (NSC755774) were obtained from the National Cancer Institute (NCI) Developmental Therapeutics Program Chemical Repository (34). The FDA-approved anticancer drug set is available from the NCI Developmental Therapeutics Program. […] The stock solutions were prepared in dimethyl sulfoxide (DMSO, Sigma-Aldrich, St. Louis, MO, cat. D2650) at 800-fold the tested concentration and stored at -70 degrees C prior to their use. All drugs and investigational agents were tested over a range starting from a high concentration at or near the clinical Cmax and decreasing in half-log increments. If the clinical Cmax for an agent had not been determined, the highest concentration tested was 10 microM.
2.3 Cell Culture. All cells were maintained in an incubator at 37 degrees C and 5% CO2 with 95% humidity. The PDC lines were cultured according to standard operating procedures established by the NCI PDMR. All PDCs were thawed and cultured in Matrigel-coated flasks prepared with a working solution of 1X Ham's F-12 nutrient mix, without supplementation (Invitrogen, cat. 11765054), 100 U/mL penicillin-streptomycin (Invitrogen, cat. 15140122), and 2.5% Matrigel (Corning Inc., cat. 354248) for the first three passages. The 857933-349-R-J2-PDC line was cultured in 6C/Colon 1B media, which includes advanced DMEM/F-12 (Thermo Fisher Scientific, cat. 12634028), 10 mM HEPES (Thermo Fisher Scientific, cat. 15630080), 1X GlutaMAX supplement (Thermo Fisher Scientific, cat. 35050061), 0.1 mg/mL primocin (InvivoGen, cat. ant-pm-2), 10% defined fetal bovine serum, heat inactivated (HyClone Laboratories Inc., cat. SH30070.03HI), 50% L-WRN conditioned media (ATCC, cat. CRL-3276), 1.25 mM N-Acetyl-L-cysteine (Sigma-Aldrich, cat. A9165), 10 mM nicotinamide (Sigma-Aldrich, cat. N0636), 1X B-27 supplement (Thermo Fisher Scientific, cat. 17504044), 1X N-2 supplement (Thermo Fisher Scientific, cat. 17502048), 10 microM Y-27632 dihydrochloride (Tocris Bioscience, cat. 1254), and 50 ng/mL human EGF recombinant protein (Thermo Fisher Scientific, cat. PHG0311). The 485176-168-R4-J1-PDC line was cultured in Panc media, which includes all 6C/Colon 1B media components plus 100 ng/mL human FGF-10 (Thermo Fisher Scientific, cat. 100-26), 500 nM SB-431542 (Selleckchem, cat. S1067), and gastrin (Tocris, cat. 3006).
[…]
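Further: spheroids exposed to compounds for seven days.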

Structure (SMILES) | viability, T/C (compound 0.0316 µM) | viability, T/C (compound 0.1 µM) | viability, T/C (compound 0.316 µM) | viability, T/C (compound 1 µM) | viability, T/C (compound 3.16 µM) | viability, T/C (compound 10 µM) | IC50 (curve of compound) | IC50 (compound alone, run of 04/16/2024) [µM] | IC50 (compound alone, run of 04/22/2024) [µM] | viability, T/C (compound 0.000999 µM) | viability, T/C (compound 0.00316 µM) | viability, T/C (compound 0.00999 µM) | viability, T/C (compound 0.0999 µM)
COc1cc(C2c3cc4c(cc3C(OC3OC5COC(C)OC5C(O)C3O)C3COC(=O)C23)OCO4)cc(OC)c1O (stereo not given) | 106% and 98.1% and 115% | 94.7% and 92.3% and 78.7% | 85.6% and 89.4% and 87.1% | 55.2% and 52.1% and 61.5% | 23.5% and 22.8% and 25.1% | 15.8% and 12.7% and 15.5% | 1.17 µM and 1.13 µM and 1.39 µM |  |  |  |  |  | 
COc1ccc([C@@H](O)c2cc(-c3ncnc4cc(N5CCOCC5)ccc34)c(F)cc2Cl)nn1 | 110% and 102% and 111% | 94.2% and 93% and 93.8% | 103% and 91.3% and 98.6% | 89% and 93.2% and 84% | 76.2% and 71.4% and 65% | 50.3% and 57.7% and 45.4% | > 10 µM and 7.77 µM |  |  |  |  |  | 
COc1cccc2c1C(=O)c1c(O)c3c(c(O)c1C2=O)CC(O)(C(=O)CO)CC3OC1CC(N)C(O)C(C)O1 (stereo not given) | 96.8% and 101% and 90.3% | 63.4% and 69.4% and 65.3% | 24.1% and 34.5% and 26.2% | 25.2% and 30.2% and 26.5% | 11.2% and 23.5% and 13% | 0.95% and 0.93% and 0.63% | 0.151 µM and 0.225 µM and 0.162 µM |  |  |  |  |  | 
COc1ncnc(C2CC2)c1-c1ncc2cnn(Cc3ccc(-c4nc(C(F)(F)F)cn4C(C)C)cc3)c2n1 | 93.7% and 116% and 113% | 103% (2×) and 110% | 94.6% and 105% and 101% | 94.7% and 98.2% and 94.5% | 114% and 109% and 97.9% | 99.9% and 102% (2×) | > 10 µM |  |  |  |  |  | 
Cc1[nH]c2ccc(F)cc2c1-c1nc2c3cccnc3c3ncccc3c2[nH]1 | 106% [middle of 12 runs] | 110% [middle of 12 runs] | 106% [middle of 12 runs] | 105% [middle of 12 runs] | 100% [middle of 12 runs] | 88.5% [middle of 12 runs] |  | > 10 | > 10 |  |  |  | 
Cc1[nH]c2ccccc2c1CCNCc1ccc(/C=C/C(=O)NO)cc1 | 87.6% and 82.6% and 84.8% |  | 6.04% and 6.14% and 2.02% |  |  |  | 0.0755 µM and 0.0725 µM and 0.0677 µM |  |  | 106% and 102% and 99.1% | 112% and 98.9% and 102% | 103% and 102% and 105% | 37.9% and 37.3% and 32%
Cc1cccc(N(C)C(=O)C2C(O)CCN2c2nc(C)cc(C(F)(F)F)c2C#N)c1 (stereo not given) | 93.2% and 106% and 100% | 98.7% and 101% and 97.4% | 105% and 106% (2×) | 102% and 93.6% and 108% | 110% and 108% and 113% | 107% (2×) and 101% | > 10 µM |  |  |  |  |  | 
Cc1cnc(CNC(=O)c2c(=O)c3ccc(N4CCCN(C)CC4)nc3n3c2sc2ccccc23)cn1 | 92.6% [middle of 12 runs] | 82.4% [middle of 12 runs] | 74% [middle of 12 runs] | 72.2% [middle of 12 runs] | 64.6% [middle of 12 runs] |  |  |  |  |  |  |  | 
Cn1ncnc1[C@H]1c2n[nH]c(=O)c3cc(F)cc(c23)N[C@@H]1c1ccc(F)cc1 | 90.5% and 84.5% and 95% |  | 82.2% and 77.3% and 78.9% |  |  |  | > 0.316 µM |  |  | 105% and 108% and 102% | 95.6% and 90.5% and 93.4% | 93.2% and 92.4% and 94.9% | 87.5% and 93.9% and 86.8%
Nc1ccn(C2OC(CO)C(O)C2(F)F)c(=O)n1 (stereo not given) | 19.1% and 19% and 20.8% | 16.1% and 13.3% and 15.5% | 15.3% and 17.1% and 18.8% | 16.3% and 16.7% and 16.6% | 17.3% and 14% and 17.2% | 16.6% and 13.6% and 14.2% | < 0.0316 µM |  |  |  |  |  | 
O=C(NO)c1cnc(N2CCN(S(=O)(=O)c3ccc4ccccc4c3)CC2)nc1 | 107% and 108% and 101% | 78.2% and 86.9% and 86.3% | 27.8% and 30.5% and 22.7% | 1.65% and 3.03% and 1.16% | 0.25% and 0.22% and 0.12% | 0.25% and 0.95% and 0.29% | 0.189 µM and 0.212 µM and 0.193 µM |  |  |  |  |  | 
O=C(c1cc(Cc2n[nH]c(=O)c3ccccc23)ccc1F)N1CCN(C(=O)C2CC2)CC1 | 101% and 114% and 107% | 90.7% and 97.5% and 95.4% | 91.1% and 97.2% and 91.3% | 96.4% and 96.3% and 90.3% | 83.8% and 88.4% and 87.7% | 63.8% and 66.6% and 66.7% | > 10 µM |  |  |  |  |  | 
O=c1[nH]cc(F)c(=O)[nH]1 | 111% and 108% and 105% | 93.5% and 97.6% and 87.4% | 105% and 95.1% and 107% | 76% and 70.2% and 86.5% | 32.9% and 34.6% and 35.7% | 46.3% and 42.6% and 32.9% | 2.27 µM and 2.11 µM and 2.28 µM |  |  |  |  |  | 

Source: PubChem BioAssay AID2060508 (Molecular Pharmacology Branch, DTP, NCI, 2025)
